Test results taken from patent publication US20240358818A1, “ANTIBODY-INDUCING POLYPEPTIDE AND VACCINE” (priority 2021, published 2024).

Columns and labels:
[1] = target: T478K mutant RBD epitope antigen (Severe acute respiratory syndrome coronavirus 2, UniProt P0DTC2, T478K)
[2] = target: L452R mutant RBD epitope antigen (Severe acute respiratory syndrome coronavirus 2, UniProt P0DTC2, L452R)

Sequence	reactivity of mouse serum to the mutant RBD [1]	reactivity to the mutant RBD compared with reactivity to the wild-type RBD [1]	reactivity to a homologous epitope of the mutant RBD compared with the wild-type RBD [2]
SNLKPFERDISTEIYQAGSTPC [#11]	sufficiently high reactivity	a little lower	–
GGNYNYLYRLFRKSNLKPFERD [#10]	–	–	substantially equivalent
